Reference: patent publication US3982931A, “N,N-di-sec.butyl-benzamide herbicides” (priority 1967, dated 1976)

Columns and labels:
Sorghum sp. = experiment: herbicidal activity of PA 106 against infesting herbs; format: in vivo
From the text: (§1) Method of evaluation of the results (of tests):
(§2) 0 = no activity and no difference with respect to the control;
(§3) 1 slight differences with respect to the control;
(§4) 3 = considerable activity with damages that definitely impair the further development of most of the small plants; an activity degree already useful for practical purposes;
(§5) 4 = maximum of activity with lack of germination or total containment of the small plants in the emerging stage.
(§6) In the case of an intermediate activity between two classes of the scale, both values are recorded with the one which corresponds to the preeminent activity preceding.
(§7) TABLE 3 reports data on the herbicidal activity against infesting herbs, while TABLE 4 reports data concerning the activity on useful species of agricultural cultivations. These tables employ the criterion explained previously. The product was spread on the soil one day after sowing, in quantities of 1, 3, 6, 8, 10, 12 and 14 kg/ha.

[1] = system: Panichum Dichotomi florum M.; experiment: as above; format: in vivo
From the text: as §1, §2, §3, §4, §5, §6, §7

Digitaria sanguinalis L. = experiment: as above; format: in vivo
From the text: as §1, §2, §3, §4, §5, §6, §7

Papmer rhoeas L. = experiment: as above; format: in vivo
From the text: as §1, §2, §3, §4, §5, §6, §7

setaria glauca L. = experiment: herbicidal activity, soil treatment one day after sowing; format: in vivo
rice = experiment: Example 3 rice field test, granular composition; format: in vivo; settings: 4, 6, 8 and 10 kg/ha
Experimental: (§8) In this test a granular composition of PA 106 containing 5% of active principle and 95% of bentonite was used. The treatment was carried out in a rice field with areas of from 900 to 1000 sq.m on naked soil flooded just shortly before the sowing of the rice. There were used doses of granulate equal to 4, 6, 8 and 10 kg of active substance per hectar of surface.

Echinocloa crus-galli = experiment: Example 3 rice field test, granular composition; format: in vivo; settings: 6 kg of PA 106 per hectar
Experimental: as §8

[2] = system: echinocloa crus-galli R.S.; experiment: herbicidal activity, soil treatment one day after sowing; format: in vivo
[3] = system: phaseolus vulgaris (bean); experiment: activity on agrarian species, soil treatment one day after sowing; format: in vivo, Phaseolus vulgaris L.
Outline: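 Activity on bean was rated from 0 (no difference from control) to 4 (germination prevented or plants fully contained at emergence), with both classes noted for intermediate effects. Soil treatment one day after sowing, at rates of 1, 3, 6, 8, 10, 12 and 14 kg/ha.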

vicia sativa L. = experiment: herbicidal activity, soil treatment one day after sowing; format: in vivo
Outline: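 Pre-emergence soil treatment one day after sowing; activity scored visually on a […] scale against untreated control, from slight difference (1) to no germination or total containment at emergence (4); intermediate activity recorded as both classes, preeminent value first.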

pisum sativum L. (pea) = experiment: activity on agrarian species, soil treatment one day after sowing; format: in vivo

SMILES: CCC(C)N(C(=O)c1ccc(Cl)c(Cl)c1)C(C)CC (centres unmarked) [PA106, 3,4-dichloro-N,N-di-sec.butyl-benzamide]
- herbicidal activity, Table 3 (Sorghum sp.; 1 kg/ha): 1
- herbicidal activity, Table 3 (Sorghum sp.; 3 kg/ha): 3
- herbicidal activity, Table 3 (Sorghum sp.; 6 kg/ha): 4
- herbicidal activity, Table 3 (Sorghum sp.; 8 kg/ha): 4
- herbicidal activity, Table 3 (Sorghum sp.; 10 kg/ha): 4
- herbicidal activity, Table 3 (Sorghum sp.; 12 kg/ha): 4
- herbicidal activity, Table 3 (Sorghum sp.; 14 kg/ha): 4
- herbicidal activity, Table 3 ([1]; 1 kg/ha): 2
- herbicidal activity, Table 3 ([1]; 3 kg/ha): 5/4
- herbicidal activity, Table 3 ([1]; 6 kg/ha): 4
- herbicidal activity, Table 3 ([1]; 8 kg/ha): 4
- herbicidal activity, Table 3 ([1]; 10 kg/ha): 4
- herbicidal activity, Table 3 ([1]; 12 kg/ha): 4
- herbicidal activity, Table 3 ([1]; 14 kg/ha): 4
- herbicidal activity, Table 3 (Digitaria sanguinalis L.; 1 kg/ha): 2/3
- herbicidal activity, Table 3 (Digitaria sanguinalis L.; 3 kg/ha): 4/3
- herbicidal activity, Table 3 (Digitaria sanguinalis L.; 6 kg/ha): 4
- herbicidal activity, Table 3 (Digitaria sanguinalis L.; 8 kg/ha): 4
- herbicidal activity, Table 3 (Digitaria sanguinalis L.; 10 kg/ha): 4
- herbicidal activity, Table 3 (Digitaria sanguinalis L.; 12 kg/ha): 4
- herbicidal activity, Table 3 (Digitaria sanguinalis L.; 14 kg/ha): 4
- herbicidal activity, Table 3 (Papmer rhoeas L.; 1 kg/ha): 0
- herbicidal activity, Table 3 (Papmer rhoeas L.; 3 kg/ha): 1
- herbicidal activity, Table 3 (Papmer rhoeas L.; 6 kg/ha): 2
- herbicidal activity, Table 3 (Papmer rhoeas L.; 8 kg/ha): 3
- herbicidal activity, Table 3 (Papmer rhoeas L.; 10 kg/ha): 4
- herbicidal activity, Table 3 (Papmer rhoeas L.; 12 kg/ha): 4
- herbicidal activity, Table 3 (Papmer rhoeas L.; 14 kg/ha): 4
- herbicidal activity, Table 3 (setaria glauca L.; 1 kg/ha): 2/3
- herbicidal activity, Table 3 (setaria glauca L.; 3 kg/ha): 3
- activity on E, 0-4 scale (setaria glauca L.; 4 kg/ha): 3-4
- activity on E, 0-4 scale (setaria glauca L.; 6 kg/ha): 4
- herbicidal activity, Table 3 (setaria glauca L.; 6 kg/ha): 4
- herbicidal activity, Table 3 (setaria glauca L.; 8 kg/ha): 4
- herbicidal activity, Table 3 (setaria glauca L.; 10 kg/ha): 4
- herbicidal activity, Table 3 (setaria glauca L.; 12 kg/ha): 4
- herbicidal activity, Table 3 (setaria glauca L.; 14 kg/ha): 4
- damage to rice (rice): without suffering any damage
- inhibition of growth of the infestant (Echinocloa crus-galli): for all practical purposes be considered as total
- herbicidal activity, Table 3 ([2]; 1 kg/ha): 0/1
- activity on D, 0-4 scale ([2]; 2 kg/ha): 2
- herbicidal activity, Table 3 ([2]; 3 kg/ha): 3
- activity on D, 0-4 scale ([2]; 4 kg/ha): 3-4
- activity on D, 0-4 scale ([2]; 6 kg/ha): 4
- herbicidal activity, Table 3 ([2]; 6 kg/ha): 4
- herbicidal activity, Table 3 ([2]; 8 kg/ha): 4
- herbicidal activity, Table 3 ([2]; 10 kg/ha): 4
- herbicidal activity, Table 3 ([2]; 12 kg/ha): 4
- herbicidal activity, Table 3 ([2]; 14 kg/ha): 4
- activity on useful species, Table 4 ([3]; 1 kg/ha): 0
- activity on useful species, Table 4 ([3]; 3 kg/ha): 0
- activity on I, 0-4 scale ([3]; 6 kg/ha): 0
- activity on useful species, Table 4 ([3]; 6 kg/ha): 0
- activity on useful species, Table 4 ([3]; 8 kg/ha): 0
- activity on useful species, Table 4 ([3]; 10 kg/ha): 0
- activity on useful species, Table 4 ([3]; 12 kg/ha): 0/1
- activity on useful species, Table 4 ([3]; 14 kg/ha): 0/1
- activity on F, 0-4 scale (vicia sativa L.; 2 kg/ha): 0
- activity on F, 0-4 scale (vicia sativa L.; 4 kg/ha): 0
- activity on F, 0-4 scale (vicia sativa L.; 6 kg/ha): 0
- activity on useful species, Table 4 (pisum sativum L. (pea); 1 kg/ha): 0
- activity on useful species, Table 4 (pisum sativum L. (pea); 3 kg/ha): 0
- activity on L, 0-4 scale (pisum sativum L. (pea); 6 kg/ha): 0
- activity on useful species, Table 4 (pisum sativum L. (pea); 6 kg/ha): 0
- activity on useful species, Table 4 (pisum sativum L. (pea); 8 kg/ha): 0
- activity on useful species, Table 4 (pisum sativum L. (pea); 10 kg/ha): 0
- activity on useful species, Table 4 (pisum sativum L. (pea); 12 kg/ha): 0
- activity on useful species, Table 4 (pisum sativum L. (pea); 14 kg/ha): 0
